Measurements reported in patent publication US9944654B2, “Nargenicin compounds and uses thereof as antibacterial agents” (priority 2014, dated 2018).
≈ marks a conversion by molar mass, not a printed value. Where “and” joins values, the source holds several entries; their conditions need not be identical. Equal entries are not always repeated. Where two headings read alike, the source gives them in different places.

Columns and labels:
[1] = tested on: Pseudomonas aeruginosa MB5890 (CB1101, efflux-deleted); experiment: microbe, parasite or virus in culture; format: cell-based; conditions: * = some reduction of growth versus control at […]; for MIC: Pseudomonas aeruginosa, read-out: P. aeruginosa MB5890 efflux-del (MIC), MHII broth
[2] = molecular target: T1, S. aureus DnaE (DNA polymerase III α-subunit homolog from Staphylococcus aureus) (Staphylococcus aureus, UniProt Q5HF71); experiment: biochemical; format: biochemical
T1 construct: SaDnaE (S. aureus DnaE residues 1-1065); 6xHis (N); made in house; host or cells: E. coli BL21-AI
T1 sequence (Q5HF71 1-1065): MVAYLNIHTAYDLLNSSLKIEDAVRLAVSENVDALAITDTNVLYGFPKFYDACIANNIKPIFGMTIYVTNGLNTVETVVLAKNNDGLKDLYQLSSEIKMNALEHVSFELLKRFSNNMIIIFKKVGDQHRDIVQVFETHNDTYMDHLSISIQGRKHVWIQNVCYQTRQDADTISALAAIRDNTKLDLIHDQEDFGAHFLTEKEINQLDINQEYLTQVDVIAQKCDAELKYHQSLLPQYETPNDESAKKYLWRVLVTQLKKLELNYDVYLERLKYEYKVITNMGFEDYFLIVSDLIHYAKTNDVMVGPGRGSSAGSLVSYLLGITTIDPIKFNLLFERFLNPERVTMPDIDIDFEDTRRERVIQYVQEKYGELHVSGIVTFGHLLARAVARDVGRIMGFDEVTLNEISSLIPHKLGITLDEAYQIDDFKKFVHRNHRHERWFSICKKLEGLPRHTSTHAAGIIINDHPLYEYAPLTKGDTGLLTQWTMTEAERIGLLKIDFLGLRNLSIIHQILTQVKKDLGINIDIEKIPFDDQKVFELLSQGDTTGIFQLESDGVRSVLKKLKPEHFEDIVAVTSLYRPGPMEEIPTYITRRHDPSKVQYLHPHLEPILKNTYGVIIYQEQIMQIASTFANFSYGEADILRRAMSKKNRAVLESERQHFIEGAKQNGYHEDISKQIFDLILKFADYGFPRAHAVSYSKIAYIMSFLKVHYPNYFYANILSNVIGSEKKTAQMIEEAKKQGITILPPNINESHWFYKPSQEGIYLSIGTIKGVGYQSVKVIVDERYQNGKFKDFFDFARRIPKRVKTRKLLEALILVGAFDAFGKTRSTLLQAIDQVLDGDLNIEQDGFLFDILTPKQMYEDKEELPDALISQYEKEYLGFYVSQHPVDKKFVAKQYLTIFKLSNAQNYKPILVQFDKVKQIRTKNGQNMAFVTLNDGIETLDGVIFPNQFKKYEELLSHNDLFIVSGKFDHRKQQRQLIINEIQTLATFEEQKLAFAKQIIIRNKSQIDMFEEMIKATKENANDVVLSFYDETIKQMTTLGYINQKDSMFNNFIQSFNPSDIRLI
Protocol: (§1) Plasmids encoding EcDnaE (E. coli DnaE residues 1-1160) and SaDnaE (S. aureus DnaE residues 1-1065) with 6×His N-terminal tags, were overexpressed in BL21(DE3) and BL21-AI cells (Invitrogen), respectively. Cells were grown in LB media to an OD ˜0.45 pelleted and then resuspended in Minimal Media, as described in Pryor et al. (1997, Protein Expr Purif. 10:309-19), and inducer (0.4 mM IPTG or 0.2% arabinose) for 21 hours at 18° C. at 220 rpm. Cells were then harvested, frozen for 20 minutes at −80° C. and thawed. Pellets were resuspended in 1× Talon buffer (50 mM Sodium Phosphate, 300 mM Sodium Chloride, pH 7.4) +10% glycerol +Roche PI's (-EDTA). Cells were lysed with two passes through a French press, then centrifuged for 45 minutes at 40,000 rpm (70Ti, Beckman). Supernatant was bound to 5 mL TALON resin (CLONTECH) for 1 hour at room temperature on Nutator. TALON resin was washed with 10 mM imidizole, and DnaE was eluted with 250 mM imidizole. Eluate was concentrated and run on a size exclusion column (SEC200, GE Healthcare) in the following buffer; 25 mM HEPES, 30 mM NaCl,1 mM CaCl2, 5% glycerol, pH 7.9. Pool SEC fractions based on SDS-PAGE run, aliquot, freeze, and store at -80° C.
(§2) DnaE was diluted in 50 mM potassium phosphate pH 7.5, 5 mM BME, 10% glycerol and 200 mM NaCl prior to use.
(§3) The purpose of the DnaE single enzyme assay is to determine the ability of compounds to inhibit the DNA polymerase III α-subunit homolog from Staphylococcus aureus or the α-subunit from Escherichia coli without the other components of the replication machinery. The DnaE single enzyme assay was a modified version of the method, Standard Pol III Assay Using Activated DNA and Four dNTPs, described by Butler et al., 2008, Methods in Molecular Medicine: New Antibiotic Targets 142:25-36. Briefly, in 96-well plates, enzyme was added to a mixture containing 30 mM Tris-HCl pH 7.5, 20% glycerol, 4 mM DTT, 10 mM Mg acetate, 0.025 mM dATP, 0.025 mM dGTP, 0.025 mM dc:TP, 0.011 mM ^3H-dTTP 1 mCi/ml (Perkin-Elmer), and 0.298 mg/mL Dnase I (Sigma) treated “activated” Calf Thymus DNA (Worthington Biochemical). The assay was set up so that 5 μl of compound was distributed to the plates, 90 μl of reaction mix was added to the compound, and 5 μl of enzyme was added to start the reaction. Assays were initiated by the addition of 0.8 μg/ml E. coli or 0.05 μg/ml S. aureus DnaE, incubated for 30 min at 30° C., and terminated by the addition of a 20% trichloroacetic acid and 0.2% sodium pyrophosphate solution. Precipitated labeled DNA was collected on Glass-fiber Filtermat A using Micro96 Harvester, and the filters were washed, dried, and counted in a Microbeta Trilux (Perkin Elmer). Serial dilutions of compounds (in DMSO) were added to the plates before enzyme addition.

[3] = tested on: Staphylococcus aureus MB6266 (MRSA COL); experiment: Nargenicin antibacterial assay (MIC), S. aureus; format: cell-based; conditions: Staphylococcus aureus, MRSA, read-out: S. aureus COL (MIC), MHII broth + 50% human serum; * = some reduction of growth versus control at […]
[4] = tested on: Streptococcus pneumoniae MB6357 (CL 2883); experiment: Nargenicin antibacterial assay (MIC), S. pneumoniae; format: cell-based; conditions: Streptococcus pneumoniae
[5] = tested on: Escherichia coli MB5747 (LS 883, tolC); experiment: microbe, parasite or virus in culture; format: cell-based; conditions: * = some reduction of growth versus control at […]; for MIC: Escherichia coli, read-out: E. coli LS883 tolC (MIC), MHII broth
[6] = molecular target: T2, E. coli DnaE (DNA polymerase III α-subunit from Escherichia coli) (Escherichia coli, UniProt P10443); experiment: In vitro DnaE single enzyme assay (E. coli); format: biochemical; conditions: E. coli DnaE IC50
T2 construct: EcDnaE (E. coli DnaE residues 1-1160); 6xHis (N); made in house; host or cells: E. coli BL21(DE3)
T2 sequence (P10443 whole entry, the tested form may be a part): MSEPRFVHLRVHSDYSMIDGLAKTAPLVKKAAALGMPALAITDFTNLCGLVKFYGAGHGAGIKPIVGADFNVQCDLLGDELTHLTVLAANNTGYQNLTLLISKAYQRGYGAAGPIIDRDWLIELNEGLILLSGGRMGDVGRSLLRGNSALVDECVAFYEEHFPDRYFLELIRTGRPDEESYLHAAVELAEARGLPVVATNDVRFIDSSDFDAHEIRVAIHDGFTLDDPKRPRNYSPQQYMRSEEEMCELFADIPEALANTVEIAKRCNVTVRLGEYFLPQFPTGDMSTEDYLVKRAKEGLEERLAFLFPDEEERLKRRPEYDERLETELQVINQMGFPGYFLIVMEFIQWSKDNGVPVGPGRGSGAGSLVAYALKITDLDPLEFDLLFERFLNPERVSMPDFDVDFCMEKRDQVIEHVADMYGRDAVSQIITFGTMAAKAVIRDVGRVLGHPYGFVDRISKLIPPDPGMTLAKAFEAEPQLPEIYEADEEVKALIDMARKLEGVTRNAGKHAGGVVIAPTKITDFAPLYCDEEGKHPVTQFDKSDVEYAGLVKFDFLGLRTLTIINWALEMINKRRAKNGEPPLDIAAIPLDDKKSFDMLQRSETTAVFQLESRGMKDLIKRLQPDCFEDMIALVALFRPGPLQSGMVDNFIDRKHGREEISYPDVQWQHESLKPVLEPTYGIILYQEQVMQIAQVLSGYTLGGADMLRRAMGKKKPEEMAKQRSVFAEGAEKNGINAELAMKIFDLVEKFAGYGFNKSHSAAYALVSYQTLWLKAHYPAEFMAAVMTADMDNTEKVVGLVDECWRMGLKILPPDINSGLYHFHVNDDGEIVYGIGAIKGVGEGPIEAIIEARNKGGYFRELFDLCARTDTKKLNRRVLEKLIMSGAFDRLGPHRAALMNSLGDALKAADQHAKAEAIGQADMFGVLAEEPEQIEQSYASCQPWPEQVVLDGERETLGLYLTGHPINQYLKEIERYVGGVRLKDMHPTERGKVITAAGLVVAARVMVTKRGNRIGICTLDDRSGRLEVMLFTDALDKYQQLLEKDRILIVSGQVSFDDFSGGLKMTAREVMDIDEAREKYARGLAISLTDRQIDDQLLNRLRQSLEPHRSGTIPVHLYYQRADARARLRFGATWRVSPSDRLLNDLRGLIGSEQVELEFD
Protocol: as §1, §2, §3

[7] = read-out: S. pneumoniae MB2883 (MIC), Isosensitest broth, * = some reduction of growth versus control at […]
[8] = read-out: S. aureus DnaE IC50 (converted)
[9] = read-out: S. pneumoniae MB2883 (MIC)

Row | Structure (SMILES) | MIC [1] [µg/mL] | IC50 ([2]; S. aureus DnaE IC50) [µM] | MIC [3] [µg/mL] | MIC [4, 7] [µg/mL] | MIC [5] [µg/mL] | IC50 [2, 8] [µM] | MIC [4, 9] [µg/mL] | IC50 [6] | P. aeruginosa MB5890 efflux-del (MIC) ([1]; MHII broth) [µg/mL] | E. coli LS883 tolC (MIC) ([5]; MHII broth) [µg/mL]
1 | CO[C@H]1CC2C=C[C@H]3[C@H]4O[C@]2(/C(C)=C/[C@@H](C)[C@@H](C(C)O)OC1=O)[C@@H]3[C@H](O)[C@@H](C)[C@H]4OC(=O)c1cc(-c2cccn2C(=O)OC(C)(C)C)c[nH]1 (stereo partly shown) [Example 45] | > 128 | 2.2 | > 128 | 4 (≈ 5.88 µM) | > 128 |  |  |  |  | 
2 | CO[C@H]1C[C@H]2C=C[C@H]3[C@H]4O[C@]2(/C(C)=C/[C@@H](C)[C@@H]([C@@H](C)O)OC1=O)[C@@H]3[C@H](O)[C@@H](C)[C@H]4O [Example 152] | 16 (≈ 37.9 µM) |  | > 128 | > 128 | 16 (≈ 37.9 µM) |  |  |  |  | 
3 | CO[C@H]1C[C@H]2C=C[C@H]3[C@H]4O[C@]2(/C(C)=C/[C@@H](C)[C@@H]([C@@H](C)O)OC1=O)[C@@H]3[C@H](O)[C@@H](C)[C@@H]4N1CCCC1 [Example 161, (3R,4S,7S,8aS,10aR,11R,12S,13S,14R,14aS,14bS,E)-14-hydroxy-4-((R)-1-hydroxyethyl)-7-methoxy-1,3,13-trimethyl-12-(pyrrolidin-1-yl)-3,4,8,8a,10a,11,12,13,14,14a-decahydro-11,14b-epoxynaphtho[2,1-e]oxecin-6(7H)-one] | > 64 |  |  |  | > 64 | 46.3 | > 64 | > 105 µM |  | 
4 | COC1CC2C=CC3C4OC2(C(C)=CC(C)C(C(C)OC(=O)OCCN(CCO)C(CO)(CO)CO)OC1=O)C3C(O)C(C)C4OC(=O)c1ccc[nH]1 (stereo not shown) [Example 31] | 32 (≈ 42.6 µM) | < 0.00799 | 2 | > 128 | 2 (≈ 2.66 µM) |  |  |  |  | 
5 | CCOC(=O)O[C@H](C)[C@H]1OC(=O)[C@@H](OC)CC2C=C[C@H]3[C@H]4O[C@]2(/C(C)=C/[C@H]1C)[C@@H]3[C@H](O)[C@@H](C)[C@H]4OC(=O)c1ccc[nH]1 (stereo partly shown) [Example 29] | > 128 |  |  |  | 8 (≈ 13.6 µM) | < 0.0102 | 16 (≈ 27.2 µM) | 76.6 µM |  | 
6 | CO[C@H]1C[C@H]2C=C[C@H]3[C@H]4O[C@]2(/C(C)=C/[C@@H](C)[C@@H]([C@@H](C)OCSC)OC1=O)[C@@H]3C(=O)[C@@H](C)[C@H]4OC(=O)c1ccc[nH]1 [Example 58] | > 128 |  |  | > 128 | > 8 | > 174 |  | 36.6 µM |  | 
7 | CO[C@H]1CC2C=C[C@H]3[C@H]4O[C@]2(/C(C)=C/[C@@H](C)[C@@H](C(C)O)OC1=O)[C@@H]3[C@H](O)[C@@H](C)[C@H]4OC(=O)c1cc(-c2ccsc2)c[nH]1 (stereo partly shown) [Example 165] | > 128 | 4.85 | > 128 | 8 (≈ 13.4 µM) | 16 (≈ 26.8 µM) |  |  |  |  | 
8 | CO[C@H]1C[C@H]2C=CC3C4[C@H](O)[C@@H](C)[C@@H](OC(=O)c5ccc[nH]5)[C@@H]3O[C@]42/C(C)=C/[C@@H](C)[C@@H]([C@@H](C)OC(=O)C(=O)OCCN(C)C)OC1=O.O=C(O)C(F)(F)F [Example 205] | 64 |  |  |  | 2 | < 0.00776 | > 128 | 7.76 µM |  | 
9 | CC[C@H]1OC(=O)[C@@H](OC)C[C@H]2C=C[C@H]3[C@H]4O[C@]2(/C(C)=C/[C@H]1C)[C@@H]3[C@H](O)[C@@H](C)[C@H]4OC(=O)c1ccc[nH]1 [Example 159] | 32 (≈ 64.1 µM) | < 0.006 | 2 |  | 4 (≈ 8.01 µM) |  |  | 36 µM and 22 µM and 30 µM and 20 µM | 16 | 2
10 | CO[C@H]1C[C@H]2C=C[C@@H]3[C@H]4C(=O)C(C)C(C[N+](=O)[O-])[C@@H]3O[C@@]24/C(C)=C/[C@@H](C)[C@@H]([C@@H](C)OCSC)OC1=O (stereo partly shown) [Example 175] | > 128 | > 191 | > 128 | > 128 | > 128 |  |  |  |  | 
11 | CO[C@H]1C[C@H]2C=C[C@H]3[C@H]4O[C@]2(/C(C)=C/[C@@H](C)[C@@H]([C@@H](C)O)OC1=O)[C@@H]3[C@H](O)[C@@H](C)[C@H]4OC(=O)c1ccsc1 [Example 183] | 16 (≈ 30 µM) |  |  |  | 1 (≈ 1.88 µM) | < 0.0113 | 64 (≈ 120 µM) | 9.76 µM |  | 
12 | CO[C@H]1C[C@H]2C=C[C@H]3[C@H]4O[C@]2(/C(C)=C/[C@@H](C)[C@@H]([C@@H](C)O)OC1=O)[C@@H]3[C@H](O)[C@@H](C)[C@H]4OCc1ccsc1 [Example 184] | 64 (≈ 123 µM) |  |  |  | 8 (≈ 15.4 µM) | 0.0771 | 64 (≈ 123 µM) | 75.2 µM |  | 
